# Tests used:
# [1] = molecular target: anti-CD28 Fab (SEQ ID NOs: 696, 697) binding to CD28 antigen; assay: Inhibition of anti-CD28 Fab binding to CD28 by peptides, competition ELISA (incl. alanine scanning); details: Table 25; anti-CD28 Fab fixed at 1 nM, 0-100 μM peptides
# [2] = molecular target: anti-CD28 Fab (SEQ ID NOs: 696, 697); assay: anti-CD28 Fab binding to peptides, ELISA; details: for EC50: anti-CD28 Fab
# [3] = molecular target: anti-CD28 scFv (disulfide) (SEQ ID NO: 10) binding to CD28 antigen; assay: Inhibition of anti-CD28 scFv (disulfide) binding to CD28 by peptides, competition ELISA; details: anti-CD28 scFv (disulfide) fixed at 0.3 nM, 0-100 μM peptides
# [4] = molecular target: anti-CD28 scFv harbored in Ab-15 binding to the CD28 antigen; assay: Inhibition of Ab-15 binding to CD28 by peptides, competition ELISA; details: Table 20; fixed Ab-15 pre-incubated with 0-100 μM titrated peptide, CD28 antigen coated plates
# Protocol: Ab-15 fixed at I nanomolar (nM) concentration was pre-incubated with 0-100 micromolar (μM) titrated peptides. After a short pre-incubation period, the mixture of titrated peptide with fixed Ab-15 were added to the CD28 antigen coated plates. After a short incubation on the plates, bound Ab-15 was detected with a standard horse radish peroxidase conjugated secondary antibody.
# [5] = molecular target: Ab-15 (anti-CD28 scFv of SEQ ID NO: 9); assay: Ab-15 (anti-CD28 scFv) binding to peptides, ELISA; parameters: species or system human; details: Table 20; Ab-15 binding to plate-captured biotinylated peptide or CD28-biotin
# Protocol: Ab-15 diluted in buffer was then added to the peptide captured plates. Bound antibody was detected using a standard horse radish peroxidase conjugate secondary antibody.
# [6] = molecular target: anti-CD28 scFv (disulfide) (SEQ ID NO: 10); assay: anti-CD28 scFv (disulfide) binding to peptides, ELISA; details: Table 27
# Protocol: Peptides were evaluated for their ability to bind to ant-CD28 Fab (SEQ ID NOs: 696.697) or anti-CD28 scFv (disulfide) (SEQ ID NO: 10) in a standard ELISA format as described above.
sequence,measurement,setting,value
LCKPGVPYKWPTCL [Peptide-156],IC50,[1],> 100000 nM
same,EC50,[2]; Table 25,> 1000 nM
LCAAGFTYPWPLCL [Peptide-155],IC50,[1],> 100000 nM
same,EC50,[2]; Table 25,> 1000 nM
SCAAGASYAWPYCA [Peptide-106],IC50,[3]; Table 29,> 100000 nM
CFYAEYYDQVYSFC [Peptide-18],IC50,[4],3250 nM
same,EC50,[5],32.2 nM
YCAGHAWQYANKCL [Peptide-113],IC50,[3]; Table 29,> 100000 nM
ADWCPRERWVDCFF [Peptide-19],IC50,[4],4420 nM
same,EC50,[5],32.5 nM
SCAAGASYAWPYCL [Peptide-92],EC50,[6],> 1000 nM
same,IC50,[3]; Table 27,> 100000 nM
same,binding to the anti-CD28 Fab,[2],strong binding
same,EC50,[2]; Table 24,54 nM
same,EC50,[2]; Table 25,18.9 nM

# From US20260242478A1, “ANTIBODIES FOR TARGETING PSMA AND CD28 AND USES THEREOF” (Janux Therapeutics, Inc., priority 2023, published 2026)
